# Assay results from PubChem BioAssay AID270 (DTP/NCI, 2004).
# Values joined by “and” are separate entries in the source; they are usually repeats but may differ in a detail not shown here. Identical values can stand only once. Records with an inconclusive call do not appear.
# Test system: BDF1 mice, s.c. Lewis lung carcinoma, T/C %
# Assay: NCI In Vivo Anticancer Drug Screen. Data for tumor model Lewis Lung Carcinoma (subcutaneous) in B6D2F1 (BDF1) mice
# Experimental: The antitumor activity of compounds was measured in mice bearing transplantable tumors. Survival or tumor size were measured and the results are expressed as the measurement made in the treated group (T) divided by the measurement made in the vehicle treated control group (C). The tumor model used in this assay is Lewis Lung Carcinoma (subcutaneous) in B6D2F1 (BDF1) mice
# [1] = endpoint: mean tumor weight, dose: 50.0 mg/kg/injection, schedule: Q01DX011 (ip), vehicle: other, higher = larger tumour
# [2] = endpoint: mean tumor weight, dose: 100.0 mg/kg/injection, schedule: Q01DX011 (ip), vehicle: other, higher = larger tumour
smiles,measurement,setting,value
Cc1cc(N)c2cc(NC(=O)CCCCCCCCC(=O)Nc3ccc4nc(C)cc(N)c4c3)ccc2n1,T/C,"endpoint: mean tumor weight, dose: 12.5 mg/kg/injection, schedule: Q01DX011 (ip), vehicle: other, higher = larger tumour",108 % of control
same,T/C,[1],61 % of control
same,T/C,[2],38 % of control
same,T/C,"endpoint: median survival time, dose: 0.05 mg/kg/injection, schedule: Q01DX009 (ip), vehicle: Klucel (hydroxypropylcellulose) (HPC), higher = longer survival",105 % of control
same,T/C,"endpoint: median survival time, dose: 0.1 mg/kg/injection, schedule: Q01DX009 (ip), vehicle: Klucel (hydroxypropylcellulose) (HPC), higher = longer survival",102 % of control
same,T/C,"endpoint: median survival time, dose: 0.19 mg/kg/injection, schedule: Q01DX009 (ip), vehicle: Klucel (hydroxypropylcellulose) (HPC), higher = longer survival",100 % of control
same,T/C,"endpoint: median survival time, dose: 0.38 mg/kg/injection, schedule: Q01DX009 (ip), vehicle: Klucel (hydroxypropylcellulose) (HPC), higher = longer survival",105 % of control
same,T/C,"endpoint: median survival time, dose: 0.75 mg/kg/injection, schedule: Q01DX009 (ip), vehicle: Klucel (hydroxypropylcellulose) (HPC), higher = longer survival",92 % of control
same,T/C,"endpoint: median survival time, dose: 1.5 mg/kg/injection, schedule: Q01DX009 (ip), vehicle: Klucel (hydroxypropylcellulose) (HPC), higher = longer survival",96 % of control
same,T/C,"endpoint: median survival time, dose: 3.0 mg/kg/injection, schedule: Q01DX009 (ip), vehicle: Klucel (hydroxypropylcellulose) (HPC), higher = longer survival",92 % of control
same,T/C,"endpoint: median survival time, dose: 3.12 mg/kg/injection, schedule: Q01DX009 (ip), vehicle: Klucel (hydroxypropylcellulose) (HPC), higher = longer survival",94 % of control
same,T/C,"endpoint: median survival time, dose: 6.25 mg/kg/injection, schedule: Q01DX009 (ip), vehicle: Klucel (hydroxypropylcellulose) (HPC), higher = longer survival",104 % of control
same,T/C,"endpoint: median survival time, dose: 12.5 mg/kg/injection, schedule: Q01DX009 (ip), vehicle: Klucel (hydroxypropylcellulose) (HPC), higher = longer survival",105 % of control
same,T/C,"endpoint: median survival time, dose: 100.0 mg/kg/injection, schedule: Q01DX009 (ip), vehicle: Klucel (hydroxypropylcellulose) (HPC), higher = longer survival",118 % of control
CCCn1cnc2c(SCc3ccccc3Cl)nc(N)nc21,T/C,"endpoint: mean tumor weight, dose: 25.0 mg/kg/injection, schedule: Q01DX011 (ip), vehicle: other, higher = larger tumour",66 % of control
same,T/C,[1],102 % of control
same,T/C,[2],89 % of control
same,T/C,"endpoint: mean tumor weight, dose: 200.0 mg/kg/injection, schedule: Q01DX011 (ip), vehicle: other, higher = larger tumour",65 % of control
Nc1nc(N)nc(N)n1,T/C,"endpoint: median survival time, dose: 100.0 mg/kg/injection, schedule: Q01DX009 (ip), vehicle: saline with Tween-80, higher = longer survival",103 % of control
same,T/C,"endpoint: median survival time, dose: 200.0 mg/kg/injection, schedule: Q01DX009 (ip), vehicle: saline with Tween-80, higher = longer survival",95 % of control
same,T/C,"endpoint: median survival time, dose: 400.0 mg/kg/injection, schedule: Q01DX009 (ip), vehicle: saline with Tween-80, higher = longer survival",98 % of control
Nc1ncnc2nc[nH]c12,T/C,"endpoint: mean tumor weight, dose: 12.5 mg/kg/injection, schedule: Q01DX011 (ip), vehicle: saline, higher = larger tumour",101 % of control
same,T/C,"endpoint: mean tumor weight, dose: 25.0 mg/kg/injection, schedule: Q01DX011 (ip), vehicle: saline, higher = larger tumour",104 % of control
same,T/C,"endpoint: mean tumor weight, dose: 50.0 mg/kg/injection, schedule: Q01DX011 (ip), vehicle: saline, higher = larger tumour",84 % of control
same,T/C,"endpoint: mean tumor weight, dose: 100.0 mg/kg/injection, schedule: Q01DX011 (ip), vehicle: saline, higher = larger tumour",43 % of control and 49 % of control
O=c1ccc2ccccc2o1,T/C,"endpoint: mean tumor weight, dose: 110.0 mg/kg/injection, schedule: Q01DX011 (ip), vehicle: carboxymethylcellulose (CMC), higher = larger tumour",57 % of control
same,T/C,"endpoint: mean tumor weight, dose: 165.0 mg/kg/injection, schedule: Q01DX011 (ip), vehicle: carboxymethylcellulose (CMC), higher = larger tumour",63 % of control
C=C(C)C(=O)O[C@H]1CC2=C[C@@H](C[C@@]3(C)O[C@@H]3[C@H]3OC(=O)C(=C)[C@@H]31)OC2=O,T/C,"endpoint: mean tumor weight, dose: 2.0 mg/kg/injection, schedule: Q01DX011 (ip), vehicle: saline, higher = larger tumour",171 % of control
same,T/C,"endpoint: mean tumor weight, dose: 4.0 mg/kg/injection, schedule: Q01DX011 (ip), vehicle: saline, higher = larger tumour",118 % of control
same,T/C,"endpoint: mean tumor weight, dose: 8.0 mg/kg/injection, schedule: Q01DX011 (ip), vehicle: saline, higher = larger tumour",107 % of control
